Consider eight compounds from patent US8765779B2, “Tricyclic derivatives and their pharmaceutical use and compositions” (Cephalon, Inc., priority 2009, dated 2014).

Series [1] deals with rats. As to conditions: compared to an untreated control group; cited from earlier work.
Series [2] deals with rats. As to conditions: rat model of tonic, persistent pain; cited from earlier work.
For another series, the target named is T1, human 5-HT6 receptor (Homo sapiens, UniProt P50406).
T1 construct: host or cells: CHO-K1 cells, stably transfected; membranes prepared in house
T1 sequence (P50406 whole entry): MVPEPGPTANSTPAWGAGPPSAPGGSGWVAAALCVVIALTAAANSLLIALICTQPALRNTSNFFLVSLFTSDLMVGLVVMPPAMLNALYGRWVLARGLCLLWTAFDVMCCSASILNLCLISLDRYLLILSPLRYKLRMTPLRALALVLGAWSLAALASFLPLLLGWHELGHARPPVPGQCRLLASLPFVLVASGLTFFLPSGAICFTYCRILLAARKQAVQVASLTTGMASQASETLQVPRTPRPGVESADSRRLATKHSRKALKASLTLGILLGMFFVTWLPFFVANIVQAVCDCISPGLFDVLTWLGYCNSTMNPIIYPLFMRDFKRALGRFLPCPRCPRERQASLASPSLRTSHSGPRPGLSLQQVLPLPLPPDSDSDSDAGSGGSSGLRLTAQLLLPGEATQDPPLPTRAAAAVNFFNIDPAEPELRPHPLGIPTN
Put plainly: Human 5-HT6 Receptor Binding Assay ([3H]LSD displacement, scintillation beads). As to conditions: membranes of CHO-K1 cells with recombinant human 5-HT6, 4 nM [3H]LSD; Table 1, class symbols; read-out: h5-HT6 (Ki).

The structures appear in SMILES notation.

Take `CN1CCN(c2cccc3c(S(=O)(=O)c4ccccc4)c[nH]c23)CC1` [RO 4368554]: the “non-REM (NREM) sleep” value in the series with rats [1] is “increase in non-REM (non-rapid eye movement or NREM) sleep”.
Consider `COc1ccc(NS(=O)(=O)c2sc3ccc(Cl)cc3c2C)cc1N1CCNCC1` [SB-271046], for which the antinociceptive effect result in the series with rats [2] is “short-lived, antinociceptive effect”.
The term melting point denotes the temperature, or range, at which the solid turns liquid. As usually defined, the Ki is a measure of affinity in units of concentration, obtained from inhibition or displacement. Compound `CC1CNCc2oc3cc(S(=O)(=O)c4cccc(F)c4)ccc3c21` (centres unmarked) [Example 102] yielded a melting point of over 300 °C. Moreover, on human 5-HT6 receptor, the Ki is under 500 nM.
On the same counts, the results for `O=S(=O)(c1ccc2c3c(oc2c1)CNCC3)c1cccc(Cl)c1F` [Example 81] are 245 to 246 °C and under 500 nM.
`COc1cc(OC(C)C)cc(S(=O)(=O)c2ccc3c4c(oc3c2)CNCC4(C)C)c1` [Example 85] displayed a melting point of 246 to 247 °C. For the same compound, at human 5-HT6 receptor, the Ki was under 500 nM.
The like results for `CC12CCNCC1Oc1ccc(S(=O)(=O)c3cc(F)cc(F)c3)cc12` (centres unmarked) [Example 94] were, in that order, 196 to 198 °C and under 500 nM.
The compound `CC12CCNCC1Oc1ccc(S(=O)(=O)c3cccc(Cl)c3Cl)cc12` (centres unmarked) [Example 101] had a melting point of 210 to 212 °C. Also, the Ki at human 5-HT6 receptor was under 500 nM.
On the same counts, the results for `CC(=O)Nc1ccc(S(=O)(=O)c2ccc3c(c2)C2(C)CCNCC2O3)cc1` (centres unmarked) [Example 96] are 212 to 214 °C and over 1000 nM.
